Test results taken from patent US20230000064A1, “OBSESSIVE-COMPULSIVE DISORDER ANIMAL MODEL AND PRODUCTION METHOD THEREOF” (KOREA UNIVERSITY RESEARCH AND BUSINESS FOUNDATION, priority 2019, published 2023).
Entries after “also recorded” stand apart in the source; their conditions may differ.

Experiments:
Format in all cases: in vivo
[1] = tested on: BLA-DMS neural circuit; assay: Hole board test in mice with chemogenetically (hM3Dq/CNO) activated BLA-DMS circuit
Procedure: A solution of clozapine N-oxide (CNO; Tocris, Bristol, United Kingdom) in saline was intraperitoneally injected to mice. Taking into account the time it takes for the drug to act, the experiment was started after about 30 minutes. The drug was injected at a dose of 1 mg/kg at the same time every day.
As a control for CNO, saline was used. Saline was also intraperitoneally injected at the same volume and the experiments were conducted in the same condition as for the CNO group.
A square acrylic plate with 9 holes (3 cm in diameter) was made to be 30 cm wide and 30 cm long. A home base was constructed with a material different from the acryl plate. Based on the home base, water was placed on the right end of the acrylic plate, and 10% sucrose was placed on the other side. Afterward, a mouse was placed in the home base and monitored for 1 hour under a video camera. Remaining amounts of sucrose and water were recorded after completion of the test.
In the present disclosure, mice were divided into two groups: saline-administered and CNO-administered groups and subjected to the test at the same time every day for 18 days. After a four-day learning period, the fourth day was used as the base. During this period, the mice located the water and 10% sucrose on the hole board. Saline and CNO were administered to each group for a total of 12 days from the 5th day to the 16th day. On the 17th day, it was observed whether the OCD phenomenon was maintained even in the absence of administration of saline and CNO. Finally, on the 18th day, the mice were measured for cognitive flexibility after switching the positions of water and 10% sucrose. The video between the base and the 18th day (base to day 14) was analyzed. The analysis items included checking behavior (repetitive checking), repetitive nose poking (repetitively inserting the nose into the hole), excessive grooming (excessive washing—hair trimming), and flexibility (cognitive flexibility).
As an analysis method, the video was analyzed with the naked eye through the blind test. Through the blind test, the objectivity of the experiment was secured by preventing the experimenter from knowing about the saline-administered group and the CNO-administered group. A measurement was made of: the frequency of going to water and sucrose for the checking behavior (repetitive checking); the number of actions of inserting the nose into each hole for repetitive nose poking (repeatedly inserting the nose into the hole); the total length of grooming (duration) and the total number of times (frequency) of the start and end of grooming for excessive grooming (excessive washing—hair trimming); and the number of times to go to water and sucrose where the positions of the 18th day (day 14) were reversed, for the flexibility (cognitive flexibility).
AAV-retro Cre virus, which can make a retrograde infection, was injected to the DMS while AAV-DIO-hM3Dq, which specifically expresses Cre, was injected into the BLA. That is, advantage was taken of the principle that when the retrograde virus from the DMS expresses Cre in the neuron cell body (soma) of the BLA, the AAV-DIO-hM3Dq virus is induced to express hM3Dq thereat only in the presence of Cre. hM3Dq can activate neurons in cooperation with the membrane protein GPCR (G-protein-coupled receptors) upon stimulation with the drug CNO (clozapine n-oxide), whereby the specific activation of the BLA-DMS neural circuit can be achieved. After injecting different viruses into these two areas, it takes more than 4 weeks for the viruses to show their activities.
After 4 weeks, the learning process was performed for the first 4 days on the hole board without injection of CNO (clozapine n-oxide). During this process, the mice identify and remember the location of the water and 10% sucrose. The BLA-DMS circuit was continuously activated by injecting CNO (1 mg/kg) at the same time every day for 12 days, using the behavioral values of the 4th day as a reference. […]

[2] = tested on: BLA-DMS neural circuit; assay: Hoarding test (two connected cages) in mice with activated BLA-DMS circuit; conditions: day 13 evening to day 14 morning, no administration; vs saline-administered group; FIGS. 12-14
From the text: A tool was manufactured by connecting two cages, with a passage in the middle thereof. The cages each have a dimension of width 25 cm×length 20 cm×height 12 cm (Jeung Do PNP). For the passage, a PVC cylinder with a dimension of diameter 5 cm and length 19 cm was used. A hole with a diameter of 5 cm was drilled 1 cm above the bottom of each cage, and a sill was installed on the PVC so that the length of the passage was 9.5 cm when a PVC cylinder was inserted into the holes. Mice were placed one per cage. In order for the mouse to recognize one cage as a home cage, beddings were placed on only one cage and the other cage was left in the default state, and the passageway to the opposite side of the home cage was blocked for one day. Then the next evening, the food in the home cage was removed, foods and toys were placed on the other cage, and the blocked passage was opened. At this time, water was placed in the home cage. Differences between the groups were compared in how many food pellets and toys were brought to the home cage on the morning of the last day of the experiment. Quantification was made of the brought weight for food and the brought number for toys. […]

[3] = tested on: BLA-DMS neural circuit; assay: Observation of hairs around the mouth after the tests; conditions: 20 days after the last test day; vs saline-administered mice; FIG. 15
From the text: Additionally, after 20 days from the last day, it was observed that the hairs around the mouth of the Clozapine n-oxide (CNO)-administered mice fell out, compared to the saline-administered mice, indicating a phenotype caused by excessive grooming (see FIG. 15).

[4] = CNO 1 mg/kg i.p. daily vs saline, repeated 1-way ANOVA, FIG. 8

C[N+]1([O-])CCN(C2=Nc3cc(Cl)ccc3Nc3ccccc32)CC1 [CNO, clozapine N-oxide]
checking frequency of heading toward 10% sucrose ([1]; CNO 1 mg/kg i.p. daily for 12 days vs saline control, repeated 1-way ANOVA, FIG. 6): significantly increased | frequency of heading toward water (checking behavior) ([1]; CNO 1 mg/kg i.p. daily for 12 days vs saline-administered group, FIG. 6): no difference | repetitive nose poking frequency ([1]; CNO 1 mg/kg i.p. daily vs saline, repeated 1-way ANOVA, FIG. 7): greatly increased | grooming frequency [1, 4]: significantly increased | grooming time (duration) [1, 4]: significantly increased | amount of 10% sucrose drank ([1]; CNO vs saline-administered group, FIG. 9): no difference | obsessive-compulsive disorder (checking and nose poking) on day 13 without administration ([1]; day 13, saline and CNO not administered): maintained | cognitive flexibility (times going to water and sucrose after positions swapped) ([1]; day 14 (18th day), vs saline-administered group, Student t-test, FIG. 10): significantly lower | hoarding of food pellets brought to home cage [2]: significantly increased | hoarding of toys brought to home cage [2]: significantly increased | hairs around the mouth (phenotype caused by excessive grooming) [3]: fell out; also recorded: disappear
